Tested on: living skin equivalents (LSE)
Assay: TT dimer immunostaining (DNA damage/repair) in UVB-irradiated living skin equivalents
Format: cell-based
Details: pre-treated 0.01% (PBS) 18 hours; 24 hours after 175 mJ of UVB
Description: Excised portions (8 mm) are taken from living skin equivalents (LSE) and cultured over transwell membrane plates. These excised portions are pre-treated with rosavin or salidroside at 0.01% (PBS) for 18 hours. After the […], these excised portions are UVB-irradiated at 0 and 175 mJ/cm^2. One set of LSEs is immediately fixed in formalin to determine TT dimer formation (DNA damage). Following a 24-hour post-incubation, another set of skin equivalents is fixed in formalin. These samples are then prepared for TT dimer immunostaining. Sections are then evaluated using a microscope at 400× magnification. A section is selected from each sample and TT dimer containing cells are evaluated. DNA damage is measured by examining TT dimer stained cells immediately after UVB irradiation. DNA repair (TT dimer removal) in UVB-irradiated LSEs is determined by comparing the levels of TT dimer at 0 hr (immediately after UVB) with the levels of TT dimer at 24 hours (24 hours after UVB).

Row | Compound | TT dimer levels
1 | OC[C@H]1O[C@@H](OCCc2ccc(O)cc2)[C@H](O)[C@@H](O)[C@@H]1O [salidroside, hydroxyphenylethanol-2-D-glucopyranoside] | 12%
2 | O[C@@H]1[C@@H](O)[C@@H](OC/C=C/c2ccccc2)O[C@H](CO[C@@H]2OC[C@H](O)[C@H](O)[C@H]2O)[C@H]1O [rosavin, cinnamyl alcohol vicyanoside rosavin] | 7%
